# From PMC12051620, “Molecular basis underlying the specificity of an antagonist AA92593 for mammalian melanopsins” (The Journal of Biological Chemistry, 2025)
# Legend:
# Test in all cases: GsX GloSensor assay with Gsα/q11
# Assay type in all cases: cell-based
# [1] = tested on: human melanopsin L207^5.42A mutant; settings: 16.7 μM AA92593, COS-1 cells
# Method: (§1) Based on the docking and MD simulations of human melanopsin with AA92593, importance of the interactions of Trp-189^ECL2 and Leu-207^5.42 with the antagonist was experimentally examined using the GsX GloSensor assay. To validate the interaction between Trp-189^ECL2 and AA92593, substitutions of W189^ECL2F, W189^ECL2I, or W189^ECL2V in human melanopsin were tested. […] To assess the importance of Leu-207^5.42 in the interaction with AA92593, substitutions L207^5.42V, L207^5.42A, or L207^5.42F in human melanopsin were tested. […] Of note, the L207^5.42F substitution enhanced the sensitivity (∼8%) of human melanopsin to AA92593 (Fig. 5F), although the difference was not statistically significant (Fig. 5H). Dose-dependent curve of reduction in the GsX GloSensor signals of the L207^5.42F was shifted by ∼0.6 μM from the curve of WT (Fig. 5I). The introduction of a Phe residue at position 207^5.42 caused additional interactions between the phenyl ring in Phe-207^5.42 and some functional groups in AA92593. The marked changes in the antagonistic effects of Trp-189^ECL2 and Leu-207^5.42 substitutions are consistent with our molecular simulations, showing that these residues are located at the antagonist-binding site (Fig. 4B).
# (§2) For GloSensor assay, opsins, GloSensor assay sensor (coded by pGlo-22F), and NanoBiT-tagged G proteins were transiently expressed in COS-1 cells (kindly provided from Dr David Farrens, Oregon Health and Science University) using PEI as described previously ([24], [52]). For the GsX GloSensor assay ([12], [13]), each well of a 96-well assay plate (Corning) was transfected with 50 ng opsin plasmid, 16.7 ng G protein plasmid, 50 ng pGlo-22F plasmid (Promega), and 500 ng PEI in 25 μl Opti-mem and 75 μl Dulbecco's modified Eagle's medium (D-MEM). For NanoBiT G protein dissociation assay, each well of a 96-well assay plate was transfected with 50 ng opsin plasmid, 5 ng Lg-BiT inserted Gqα (Gqα-LgBiT) plasmid, 25 ng Gβ1 plasmid, 25 ng Sm-BiT fused Gγ2 plasmid, 5 ng RIC8A plasmid, and 500 ng PEI in 25 μl Opti-mem and 75 μl D-MEM. For GFP-fluorescence microscopy, a 35-mm cell culture dish (IWAKI) was transfected with 2 μg melanopsin-GFP plasmid and 8 μg PEI in 400 μl Opti-mem and 1.2 ml D-MEM. For melanopsin purification, ten of 100-mm cell culture dishes (NEST) were transfected with 150 μg melanopsin plasmid and 500 μg PEI in 25 ml Opti mem and 75 ml D-MEM.
# (§3) The transfected COS-1 cells were incubated at 37 °C, 5% CO2 for 2 days, and the medium was aspirated and exchanged with 50 μl of HBSS (145 mM NaCl, 10 mM D-glucose, 5 mM KCl, 1 mM MgCl2, 1.7 mM CaCl2, 1.5 mM NaHCO3, 10 mM Hepes, pH 7.4), containing 33.3, 20, 10, 2, 0.2, 0.02, 0.002, or 0 μM AA92593, 0.5% dimetyl sulfoxide (DMSO), and 4% (vol/vol) GloSensor cAMP reagent stock solution. Under our experimental conditions, >50 μM AA92593 was not fully dissolved in the HBSS solution, and we set maximal concentration of AA92593 (Glixx Laboratories) at 33.3 μM (final concentration of 16.7 μM, see below). Then, the cells were incubated at room temperature for 1 h, and luminescence changes were monitored. After incubation of the cells with AA92593, luminescence measurement was interrupted, the plate was ejected, and the cells were added with 50 μl of HBSS containing 0.2 μM 9-cis-retinal. The final exogenous AA92593 concentrations were 16.7, 10, 5, 1, 0.1, 0.01, 0.001, or 0 μM, and retinal concentration was 0.1 μM. Twenty millimolars of stock solution of AA92593 was prepared in DMSO, and final concentration of DMSO was kept at 0.25% regardless final AA92593 concentration. Then, the cells were incubated at room temperature for 1 h. Luminescence was measured using GM-2000 or GM-3510 microplate reader (Promega). Luminescence level of each well was measured every 30 s with integration time of 0.6 to 0.9 s. […]
# [2] = molecular target: T1, human melanopsin L207^5.42F mutant (Homo sapiens, UniProt Q9UHM6, L239F)
# T1 construct: the C-terminal amino acid residues (94, 140, 200, 214, 296, and 308 residues); expressed in transfected cells; host or cells: COS-1
# T1 sequence (Q9UHM6 1-384 L239F limits assumed): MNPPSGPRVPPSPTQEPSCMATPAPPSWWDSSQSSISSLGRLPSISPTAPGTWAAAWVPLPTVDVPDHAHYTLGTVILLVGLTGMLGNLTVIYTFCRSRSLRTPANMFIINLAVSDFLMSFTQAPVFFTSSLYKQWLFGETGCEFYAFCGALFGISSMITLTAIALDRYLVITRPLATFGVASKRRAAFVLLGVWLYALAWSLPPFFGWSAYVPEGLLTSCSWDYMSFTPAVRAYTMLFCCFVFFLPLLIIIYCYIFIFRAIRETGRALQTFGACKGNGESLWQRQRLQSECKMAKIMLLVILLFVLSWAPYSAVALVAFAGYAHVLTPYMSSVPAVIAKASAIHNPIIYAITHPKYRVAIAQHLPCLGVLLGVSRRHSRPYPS
# Method: as §1, §2, §3
# [3] = tested on: human melanopsin L207^5.42V mutant; settings: 16.7 μM AA92593, COS-1 cells
# Method: as §1, §2, §3
# [4] = tested on: human melanopsin W189^ECL2F mutant; settings: 16.7 μM AA92593, COS-1 cells
# Method: as §1, §2, §3
# [5] = molecular target: T2, human melanopsin W189^ECL2I mutant (Homo sapiens, UniProt Q9UHM6, W223I); settings: 16.7 μM AA92593, COS-1 cells
# T2 construct: expressed in transfected cells; host or cells: COS-1
# T2 sequence (Q9UHM6 1-384 W223I limits assumed): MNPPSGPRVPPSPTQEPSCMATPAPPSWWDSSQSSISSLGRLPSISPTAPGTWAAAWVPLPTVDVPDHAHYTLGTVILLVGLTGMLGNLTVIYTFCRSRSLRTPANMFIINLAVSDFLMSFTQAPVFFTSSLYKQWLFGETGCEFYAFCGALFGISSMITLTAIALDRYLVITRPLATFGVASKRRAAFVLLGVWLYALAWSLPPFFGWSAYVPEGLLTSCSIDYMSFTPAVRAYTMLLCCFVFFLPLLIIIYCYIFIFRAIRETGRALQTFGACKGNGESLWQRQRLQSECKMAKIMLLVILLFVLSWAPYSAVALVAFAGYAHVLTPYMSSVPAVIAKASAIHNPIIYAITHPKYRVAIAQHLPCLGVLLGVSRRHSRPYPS
# Method: as §1, §2, §3
# [6] = molecular target: T3, human melanopsin W189^ECL2V mutant (Homo sapiens, UniProt Q9UHM6, W223V); settings: 16.7 μM AA92593, COS-1 cells
# T3 construct: expressed in transfected cells; host or cells: COS-1
# T3 sequence (Q9UHM6 1-384 W223V limits assumed): as the sequence (Q9UHM6 1-384 W223I limits assumed) above, with I223V counted along it
# Method: as §1, §2, §3
# [7] = relative peak cAMP response vs no AA92593
structure (smiles),measurement,setting,value
COc1ccc(S(=O)(=O)N2CCCCC2)cc1C [AA92593],reduced antagonistic effect of AA92593 vs WT,[1],~12%
same,Hill fitting parameter rate of dose-response curve,[2],−0.88 ± 0.29
same,enhanced sensitivity to AA92593 vs WT,"[2]; 16.7 μM AA92593, COS-1 cells, Gsα/q11, difference not statistically significant",~8%
same,IC50,"[2]; COS-1 cells, n = 3, read-out: IC50, reduction in peak cAMP responses upon Gsα/q11 activation",0.35 ± 0.16 µM
same,Hill fitting parameter max of dose-response curve,[2]; [7],98.88 ± 4.88
same,Hill fitting parameter min of dose-response curve,[2]; [7],3.15 ± 9.9
same,reduced antagonistic effect of AA92593 vs WT,[3],~15%
same,decrease in sensitivity to AA92593 vs WT,[4],~60%
same,inhibitory effect of AA92593 compared to WT,[5],significantly weaker
same,inhibitory effect of AA92593 compared to WT,[6],significantly weaker
